The results in this text go back to patent US5166154A, “Imidazo[1,2-a]piperazines” (Boehringer Ingelheim Pharmaceuticals, Inc., priority 1991, dated 1992).

The test has as its target T1, Human sputum elastase (HSE) (Homo sapiens, UniProt P08246).
T1 construct: purchased Elastin Products Co., Pacific, Mo; host or cells: human sputum
T1 sequence (P08246 30-247 limits assumed): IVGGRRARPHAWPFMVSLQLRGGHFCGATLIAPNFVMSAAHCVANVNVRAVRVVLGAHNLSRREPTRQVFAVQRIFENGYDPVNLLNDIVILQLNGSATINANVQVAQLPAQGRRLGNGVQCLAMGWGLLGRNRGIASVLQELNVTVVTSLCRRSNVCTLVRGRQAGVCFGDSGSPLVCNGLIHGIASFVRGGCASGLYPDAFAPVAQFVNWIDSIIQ
Description: In vitro elastase inhibition, hydrolysis of MeO-Suc-Ala-Ala-Pro-Val-pNA (release of pNA, 405 nm). Format: biochemical. Conditions: 5 ug/mL, 0.5 mM substrate, pH 7.5, 15 min pre-incubation. From the text:
The method of K. Nakajima et al., Journal of Biological Chemistry, 254: 4027-4032 (1979) was adapted to a microtiter format. The in vitro assay is based upon the hydrolysis of the commercially available (Sigma Chemical Company, St. Louis, Mo.) substrate methoxy O-succinyl-L-alanyl-L-alanyl-L-prolyl-L-valine para-nitroanilide (MeO-Suc-Ala-Ala-Pro-Val-pNA) and the release of para-nitroanilide (pNA), which absorbs at 405 nm.
a. Human sputum elastase (HSE) (Elastin Products Co., Pacific, Mo.) dissolved in 1 mg/mL in 0.05M sodium chloride and frozen (50 μL aliquots) at -20° C. until used.
b. Stock solution of MeO-succinyl-L-Alanyl-L-Alanyl-Pro-Val-pNA dissolved at 15 mM in dimethylsulfoxide (DMSO) and frozen (4 mL aliquots) at -20° C. until used.
c. Assay buffer: 0.1M Tris buffer, pH 7.5 containing 0.5M sodium chloride.
Screening is performed in microtiter plates, using 0.5 mM substrate and monitored on a Microtiter Reader. Enzyme activity (+/- test compound) is determined as the rate of pNA release (linear regression analysis of slope). Inhibitory activity of the test compound is calculated relative to the uninhibited enzyme control, as follows: [formula]
A frozen aliquot of HSE is thawed and diluted with assay buffer to a stock concentration of 0.02 mg/mL (30×assay concentration). A frozen aliquot of the substrate stock solution is thawed and diluted to 0.5 mM with the assay buffer (final DMSO concentration is […]). 10 μl of the test compound stock solution (or assay buffer) and 10 μl of the HSE stock solutions are pipetted into each microtiter well, in duplicate. The plate is mixed well, and pre-incubated at room temperature for 15 minutes. A 300 μl substrate solution is then added to each well and the OD405 is followed for approximately 30 minutes.
Further, it is known to those skilled in the art that the biological activities of pharmaceutical agents may be diminished in vitro when human serum albumin (HSA) is added. This is due to the probable binding of compounds to protein. In the case of the present invention, however, the compounds of the present invention are just as active in vitro without or with 0.5% HSA and thus would be expected not to bind to plasma in an in vivo situation or in a diagnostic setting.

The mark [1] stands for this setting: 0% HSA (human serum albumin), read-out: % INHIBITION (5 ug/mL), 0% HSA.
[2] abbreviates: 0.5% HSA (human serum albumin), read-out: % INHIBITION (5 ug/mL), 0.5% HSA.

The structures appear in SMILES notation. Where two headings read alike, the source gives them in different places.

With `CC(C)C1N=C2CN(C3Cc4ccccc4C3)C(=O)[C@H](C(C)C)N2C1(O)C(F)(F)F` (stereo partly drawn), the inhibition at 5 µg/mL under setting [1] worked out at 86% and the inhibition at 5 µg/mL under setting [2] was determined as 84.5%.

Take `CC(C)C1N=C2CN(C3CCCCCCC3)C(=O)[C@H](C(C)C)N2C1(O)C(F)(F)F` (stereo partly drawn): the inhibition at 5 µg/mL by setting is: under setting [1], 39.2%; under setting [2], 28%.

Consider `COc1ccc(CCN2CC3=NC(C(C)C)C(O)(C(F)(F)F)N3[C@@H](C(C)C)C2=O)cc1OC` (stereo partly drawn), for which the inhibition at 5 µg/mL stood at 47.5% under setting [1] and 58.6% under setting [2].
